Experimental data as given in patent US10344060B2 (priority 2013, dated 2019).

Legend:
hNav1.4 = hNav1.4 (Homo sapiens, UniProt P35499); experiment: cell-based; type: cell-based; conditions: Table 12; for IC50: PatchXpress, tonic block, read-out: PX hNav1.4 Tonic IC50; for Nav1.4/Nav1.7: ratio of PX tonic IC50 values
hNav1.7 = hNav1.7 (Homo sapiens, UniProt Q15858); experiment: cell-based; type: cell-based; conditions: Table 12; PatchXpress, tonic block; read-out: PX hNav1.7 Tonic IC50
Sequence of hNav1.7 (Q15858 whole entry): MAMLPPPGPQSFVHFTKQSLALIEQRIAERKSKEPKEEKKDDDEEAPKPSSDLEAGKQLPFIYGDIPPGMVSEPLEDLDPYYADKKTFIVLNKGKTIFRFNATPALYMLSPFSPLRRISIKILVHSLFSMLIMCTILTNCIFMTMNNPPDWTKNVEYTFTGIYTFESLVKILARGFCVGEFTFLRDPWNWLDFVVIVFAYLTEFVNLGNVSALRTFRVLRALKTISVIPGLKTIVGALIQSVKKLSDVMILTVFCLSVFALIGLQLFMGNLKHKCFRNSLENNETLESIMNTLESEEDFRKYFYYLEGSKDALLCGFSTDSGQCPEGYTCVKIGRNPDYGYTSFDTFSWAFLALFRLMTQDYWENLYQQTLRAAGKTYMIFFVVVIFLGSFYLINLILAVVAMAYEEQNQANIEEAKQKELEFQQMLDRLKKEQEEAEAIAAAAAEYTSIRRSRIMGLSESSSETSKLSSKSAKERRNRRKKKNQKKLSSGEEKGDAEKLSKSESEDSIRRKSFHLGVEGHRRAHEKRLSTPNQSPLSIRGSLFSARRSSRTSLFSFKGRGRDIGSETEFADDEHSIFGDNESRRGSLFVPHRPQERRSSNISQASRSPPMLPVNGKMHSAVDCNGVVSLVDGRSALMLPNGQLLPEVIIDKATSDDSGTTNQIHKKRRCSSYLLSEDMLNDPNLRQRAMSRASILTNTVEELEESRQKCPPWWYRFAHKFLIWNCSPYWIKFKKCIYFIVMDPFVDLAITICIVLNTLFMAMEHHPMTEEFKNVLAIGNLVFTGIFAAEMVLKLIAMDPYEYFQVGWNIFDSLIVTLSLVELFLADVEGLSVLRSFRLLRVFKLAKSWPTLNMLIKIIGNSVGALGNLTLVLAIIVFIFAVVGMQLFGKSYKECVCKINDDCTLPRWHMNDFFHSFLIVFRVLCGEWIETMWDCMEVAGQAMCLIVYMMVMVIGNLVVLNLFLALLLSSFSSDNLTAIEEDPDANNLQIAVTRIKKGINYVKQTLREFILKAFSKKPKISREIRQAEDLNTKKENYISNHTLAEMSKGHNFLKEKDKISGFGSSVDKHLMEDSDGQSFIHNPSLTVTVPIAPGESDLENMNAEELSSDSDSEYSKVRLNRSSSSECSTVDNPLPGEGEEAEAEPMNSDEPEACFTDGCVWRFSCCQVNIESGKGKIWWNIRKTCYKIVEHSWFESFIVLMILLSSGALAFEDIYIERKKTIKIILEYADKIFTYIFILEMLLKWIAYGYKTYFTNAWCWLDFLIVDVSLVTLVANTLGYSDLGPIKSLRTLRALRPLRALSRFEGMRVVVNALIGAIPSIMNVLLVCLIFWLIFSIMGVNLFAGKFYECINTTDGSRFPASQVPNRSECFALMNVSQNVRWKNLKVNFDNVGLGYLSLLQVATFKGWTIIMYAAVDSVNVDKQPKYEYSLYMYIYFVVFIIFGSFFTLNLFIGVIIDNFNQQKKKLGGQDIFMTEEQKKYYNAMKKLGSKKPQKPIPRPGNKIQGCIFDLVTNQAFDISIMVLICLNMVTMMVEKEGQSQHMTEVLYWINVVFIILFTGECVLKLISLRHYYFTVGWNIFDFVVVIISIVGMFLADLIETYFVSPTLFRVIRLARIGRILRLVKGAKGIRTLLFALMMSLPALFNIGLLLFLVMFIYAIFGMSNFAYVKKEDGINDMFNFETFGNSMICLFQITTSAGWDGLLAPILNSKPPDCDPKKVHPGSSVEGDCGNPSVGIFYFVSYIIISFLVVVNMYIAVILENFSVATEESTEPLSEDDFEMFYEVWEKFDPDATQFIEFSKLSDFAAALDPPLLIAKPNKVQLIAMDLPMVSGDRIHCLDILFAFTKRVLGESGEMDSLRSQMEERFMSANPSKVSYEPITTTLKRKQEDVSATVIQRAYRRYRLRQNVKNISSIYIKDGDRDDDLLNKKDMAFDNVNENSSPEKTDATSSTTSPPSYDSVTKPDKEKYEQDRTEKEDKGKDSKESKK

Sequence of hNav1.4 (P35499 whole entry): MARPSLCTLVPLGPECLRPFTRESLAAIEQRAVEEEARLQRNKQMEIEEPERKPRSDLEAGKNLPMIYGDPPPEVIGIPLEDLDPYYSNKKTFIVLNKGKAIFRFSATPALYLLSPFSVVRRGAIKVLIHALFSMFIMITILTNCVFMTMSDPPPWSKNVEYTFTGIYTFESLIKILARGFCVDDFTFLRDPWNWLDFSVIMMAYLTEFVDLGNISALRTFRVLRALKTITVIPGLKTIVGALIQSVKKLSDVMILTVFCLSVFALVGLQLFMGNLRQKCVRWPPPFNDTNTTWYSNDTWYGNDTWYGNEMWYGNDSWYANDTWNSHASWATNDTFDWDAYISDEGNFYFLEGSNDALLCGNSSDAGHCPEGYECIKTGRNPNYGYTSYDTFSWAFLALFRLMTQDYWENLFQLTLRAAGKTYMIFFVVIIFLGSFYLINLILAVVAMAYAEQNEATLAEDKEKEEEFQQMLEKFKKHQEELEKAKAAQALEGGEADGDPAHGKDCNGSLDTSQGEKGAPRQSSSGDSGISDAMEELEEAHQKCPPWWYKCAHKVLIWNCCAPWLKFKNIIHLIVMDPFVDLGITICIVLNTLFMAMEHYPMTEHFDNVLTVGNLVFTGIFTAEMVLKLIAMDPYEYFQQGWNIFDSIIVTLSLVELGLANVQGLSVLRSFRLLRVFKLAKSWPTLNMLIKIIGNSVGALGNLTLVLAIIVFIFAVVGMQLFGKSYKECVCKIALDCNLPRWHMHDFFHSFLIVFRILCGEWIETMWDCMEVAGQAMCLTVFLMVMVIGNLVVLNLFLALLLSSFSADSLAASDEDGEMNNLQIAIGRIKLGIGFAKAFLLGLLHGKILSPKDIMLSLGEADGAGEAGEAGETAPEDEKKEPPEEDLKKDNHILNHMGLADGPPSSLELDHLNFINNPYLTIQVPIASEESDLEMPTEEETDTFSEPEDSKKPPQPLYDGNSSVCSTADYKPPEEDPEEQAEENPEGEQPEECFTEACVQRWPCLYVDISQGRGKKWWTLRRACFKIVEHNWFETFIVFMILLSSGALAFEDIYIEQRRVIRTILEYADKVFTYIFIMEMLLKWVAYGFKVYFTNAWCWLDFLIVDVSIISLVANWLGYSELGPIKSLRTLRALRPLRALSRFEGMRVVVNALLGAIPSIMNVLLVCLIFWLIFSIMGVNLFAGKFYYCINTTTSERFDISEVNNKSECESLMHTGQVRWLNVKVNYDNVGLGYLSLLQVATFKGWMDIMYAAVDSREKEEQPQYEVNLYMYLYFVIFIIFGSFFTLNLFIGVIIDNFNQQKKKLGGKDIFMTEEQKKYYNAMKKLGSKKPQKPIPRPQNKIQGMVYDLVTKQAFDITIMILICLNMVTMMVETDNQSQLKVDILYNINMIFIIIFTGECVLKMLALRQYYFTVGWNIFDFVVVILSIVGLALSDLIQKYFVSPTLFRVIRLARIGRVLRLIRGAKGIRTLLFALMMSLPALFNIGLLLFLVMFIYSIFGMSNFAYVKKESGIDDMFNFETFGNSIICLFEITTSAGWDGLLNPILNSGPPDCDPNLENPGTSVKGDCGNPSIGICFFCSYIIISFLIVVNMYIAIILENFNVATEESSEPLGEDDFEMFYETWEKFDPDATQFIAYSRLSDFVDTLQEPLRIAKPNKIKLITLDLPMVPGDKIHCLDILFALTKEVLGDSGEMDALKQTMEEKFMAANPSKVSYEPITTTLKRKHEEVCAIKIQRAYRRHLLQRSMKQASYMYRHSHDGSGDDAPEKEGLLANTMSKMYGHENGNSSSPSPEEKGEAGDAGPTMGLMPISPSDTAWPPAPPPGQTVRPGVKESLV

Work on `C#CC[C@H](N)C(=O)N[C@@H](Cc1ccc(O)cc1)C(=O)N[C@H]1CSSC[C@@H]2NC(=O)[C@@H]3CSSC[C@@H](C(=O)N[C@@H](CCCNC(=N)N)C(=O)N[C@@H](CCCCN)C(=O)N[C@@H](CCC(=O)O)C(=O)N[C@H](C(N)=O)[C@@H](C)CC)NC(=O)[C@H](Cc4c[nH]c5ccccc45)NC(=O)[C@H](CC(C)C)NC(=O)[C@H](CCCCN)NC(=O)[C@H](CSSC[C@H](NC(=O)[C@H]([C@@H](C)O)NC(=O)[C@H](Cc4c[nH]c5ccccc45)NC(=O)[C@H](CCCC)NC(=O)[C@H](Cc4c[nH]c5ccccc45)NC(=O)[C@H](CCCCN)NC(=O)[C@H](CCC(N)=O)NC1=O)C(=O)N[C@@H](CC(=O)O)C(=O)N[C@@H](CO)C(=O)N[C@@H](CCC(=O)O)C(=O)N[C@@H](CCCNC(=N)N)C(=O)N[C@@H](C)C(=O)N3)NC(=O)[C@H](CCCNC(=N)N)NC(=O)[C@H](CC(C)C)NC(=O)CNC(=O)[C@H](CCCCN)NC2=O` [compound 728] yielded an IC50 (hNav1.4) of 405 nM, a Nav1.4/Nav1.7 (hNav1.4) of 46 and an IC50 (hNav1.7) of 8.76 nM.
Compound `C#CC[C@H](N)C(=O)N[C@@H](Cc1ccc(O)cc1)C(=O)N[C@H]1CSSC[C@@H]2NC(=O)[C@@H]3CSSC[C@@H](C(=O)N[C@@H](CCCNC(=N)N)C(=O)N[C@@H](CCCCN)C(=O)N[C@@H](CCC(=O)O)C(=O)N[C@H](C(N)=O)[C@@H](C)CC)NC(=O)[C@H](Cc4c[nH]c5ccccc45)NC(=O)[C@H](CC(C)C)NC(=O)[C@H](CCCCN)NC(=O)[C@H](CSSC[C@H](NC(=O)[C@H]([C@@H](C)O)NC(=O)[C@H](Cc4ccccc4)NC(=O)[C@H](CCCC)NC(=O)[C@H](Cc4c[nH]c5ccccc45)NC(=O)[C@H](CCCCN)NC(=O)[C@H](CCC(N)=O)NC1=O)C(=O)N[C@@H](CC(=O)O)C(=O)N[C@@H](CO)C(=O)N[C@@H](CCCCN)C(=O)N[C@@H](CCCNC(=N)N)C(=O)N[C@@H](C)C(=O)N3)NC(=O)[C@H](CCCNC(=N)N)NC(=O)[C@H](CC(C)C)NC(=O)CNC(=O)[C@H](CCC(=O)O)NC2=O` [compound 848] has an IC50 (hNav1.4) of 1010 nM, a Nav1.4/Nav1.7 (hNav1.4) of 80 and an IC50 (hNav1.7) of 12.6 nM.
Work on `C#CC[C@H](N)C(=O)N[C@@H](Cc1ccc(O)cc1)C(=O)N[C@H]1CSSC[C@@H]2NC(=O)[C@@H]3CSSC[C@@H](C(=O)N[C@@H](CCCNC(=N)N)C(=O)N[C@@H](CCCCN)C(=O)N[C@@H](CCC(=O)O)C(=O)N[C@H](C(N)=O)[C@@H](C)CC)NC(=O)[C@H](Cc4c[nH]c5ccccc45)NC(=O)[C@H](CC(C)C)NC(=O)[C@H](CCCCN)NC(=O)[C@H](CSSC[C@H](NC(=O)[C@H]([C@@H](C)O)NC(=O)[C@H](Cc4c[nH]c5ccccc45)NC(=O)[C@H](Cc4ccccc4)NC(=O)[C@H](Cc4c[nH]c5ccccc45)NC(=O)[C@H](CCCCN)NC(=O)[C@H](CCC(N)=O)NC1=O)C(=O)N[C@@H](CC(=O)O)C(=O)N[C@@H](CO)C(=O)N[C@@H](CCCCN)C(=O)N[C@@H](CCCNC(=N)N)C(=O)N[C@@H](C)C(=O)N3)NC(=O)[C@H](CCCNC(=N)N)NC(=O)[C@H](CC(C)C)NC(=O)CNC(=O)[C@H](CCC(=O)O)NC2=O` [compound 863] yielded an IC50 (hNav1.4) of 61.6 nM, a Nav1.4/Nav1.7 (hNav1.4) of 45 and an IC50 (hNav1.7) of 1.36 nM.
For `C#CC[C@@H]1NC(=O)[C@@H]2CSSC[C@H](NC(=O)[C@H](Cc3ccc(O)cc3)NC(=O)[C@@H](N)CC#N)C(=O)N[C@@H](CCC(N)=O)C(=O)N[C@@H](CCCCN)C(=O)N[C@@H](Cc3c[nH]c4ccccc34)C(=O)N[C@@H](CCCC)C(=O)N[C@@H](Cc3c[nH]c4ccccc34)C(=O)N[C@@H]([C@@H](C)O)C(=O)N[C@H]3CSSC[C@H](NC(=O)[C@H](CCCNC(=N)N)NC(=O)[C@H](CC(C)C)NC(=O)CNC1=O)C(=O)N[C@@H](CCCCN)C(=O)N[C@@H](CC(C)C)C(=O)N[C@@H](Cc1c[nH]c4ccccc14)C(=O)N[C@H](C(=O)N[C@@H](CCCNC(=N)N)C(=O)N[C@@H](CCCCN)C(=O)N[C@@H](CCC(=O)O)C(=O)N[C@@H](CCc1ccccc1)C(N)=O)CSSC[C@H](NC(=O)[C@H](C)NC(=O)[C@H](CCCNC(=N)N)NC(=O)[C@H](CCCCN)NC(=O)[C@H](CO)NC(=O)[C@H](CC(=O)O)NC3=O)C(=O)N2` [compound 877], the IC50 (hNav1.4) was 14.9 nM, the Nav1.4/Nav1.7 (hNav1.4) was 93 and the IC50 (hNav1.7) was 0.16 nM.
